Measured values: patent US7417156B2, “Orally active, antimalarial, anticancer, artemisinin-derived trioxane dimers” (Johns Hopkins University, priority 2002, dated 2008)
pIC50: −log10 of the molar value.

What was measured:
[1] = test system: chloroquine-sensitive P. falciparum (NF54); assay: Antimalarial activity in vitro, [3H]hypoxanthine incorporation; assay type: cell-based; details: Table I; NF54 strain; read-out: IC50
[2] = test system: CCRF-CEM; assay: NCI 60 cell line panel screen (SRB); assay type: cell-based, human
[3] = test system: HL-60(TB); assay: NCI 60 cell line panel screen (SRB); assay type: cell-based, human
[4] = test system: K-562; assay: NCI 60 cell line panel screen (SRB); assay type: cell-based, human
[5] = test system: MOLT-4; details: MOLT-4 (Leukemia)
Outline: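 Sulforhodamine B staining of TCA-fixed cellular protein was the read-out, following 48 h compound exposure at 37 °C. Plates were pre-incubated 24 h before dosing, and five concentrations (routinely 10^−4 to 10^−8 molar) were tested in duplicate with time-zero and untreated controls. Values derive from test/control percentage growth relative to time-zero mass.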

[6] = test system: EKVX; assay: NCI 60 cell line panel screen (SRB); assay type: cell-based, human
[7] = test system: HOP-62; assay: NCI 60 cell line panel screen (SRB); assay type: cell-based, human
[8] = test system: HT29; assay: NCI 60 cell line panel screen (SRB); assay type: cell-based, human
[9] = test system: SF-268; assay: NCI 60 cell line panel screen (SRB); assay type: cell-based, human
[10] = test system: SF-539; assay: NCI 60 cell line panel screen (SRB); assay type: cell-based, human
[11] = test system: UACC-257; assay: NCI 60 cell line panel screen (SRB); assay type: cell-based, human; details: UACC-257 (Melanoma)
[12] = test system: OVCAR-8; assay: NCI 60 cell line panel screen (SRB); assay type: cell-based, human
[13] = test system: SK-OV-3; assay: NCI 60 cell line panel screen (SRB); assay type: cell-based, human
[14] = test system: RXF 393; assay: NCI 60 cell line panel screen (SRB); assay type: cell-based, human
[15] = test system: MCF7; assay: NCI 60 cell line panel screen (SRB); assay type: cell-based, human
[16] = test system: NCI/ADR-RES; assay: NCI 60 cell line panel screen (SRB); assay type: cell-based, human
[17] = test system: MDA-MB231/ATCC; assay: NCI 60 cell line panel screen (SRB); assay type: cell-based, human
[18] = test system: BT-549; assay: NCI 60 cell line panel screen (SRB); assay type: cell-based, human

## CC1CCC2C(C)C(CC(O)(CC3OC4OC5(C)CCC6C(C)CCC(C3C)C46OO5)CS(=O)(=O)c3ccc(C(=O)O)cc3)OC3OC4(C)CCC1C32OO4 (stereo not drawn) [Compound 10c, bis-trioxane β-hydroxysulfone benzoic acid]
[1]
  pIC50: 8.62
[2]; CCRF-CEM (Leukemia), LC50: PG=−50
  Log10LC50: >−4.30 log10M
[2]; CCRF-CEM (Leukemia), TGI: PG=0
  Log10TGI50: −4.84 log10M
[2]; Leukemia, CCRF-CEM
  Log10GI50: <−8.30
[3]; HL-60(TB) (Leukemia), LC50: PG=−50
  Log10LC50: >−4.30 log10M
[3]; HL-60(TB) (Leukemia), TGI: PG=0
  Log10TGI50: <−8.30 log10M
[3]; Leukemia, HL-60(TB)
  Log10GI50: <−8.30
[4]; K-562 (Leukemia), LC50: PG=−50
  Log10LC50: >−4.30 log10M
[4]; K-562 (Leukemia), TGI: PG=0
  Log10TGI50: −4.75 log10M
[4]; Leukemia, K-562
  Log10GI50: <−8.30
[5]; LC50: PG=−50
  Log10LC50: >−4.30 log10M
[5]; TGI: PG=0
  Log10TGI50: >−4.30 log10M
[6]; EKVX (Non-Small Cell Lung Cancer), LC50: PG=−50
  Log10LC50: >−4.30 log10M
[6]; EKVX (Non-Small Cell Lung Cancer), TGI: PG=0
  Log10TGI50: −4.63 log10M
[6]; Non-Small Cell Lung Cancer, EKVX
  Log10GI50: −4.99
[7]; HOP-62 (Non-Small Cell Lung Cancer), LC50: PG=−50
  Log10LC50: −4.62 log10M
[7]; HOP-62 (Non-Small Cell Lung Cancer), TGI: PG=0
  Log10TGI50: −5.01 log10M
[7]; Non-Small Cell Lung Cancer, HOP-62
  Log10GI50: <−8.30
[8]; Colon Cancer, HT29
  Log10GI50: <−8.30
[8]; HT29 (Colon Cancer), LC50: PG=−50
  Log10LC50: >−4.30 log10M
[8]; HT29 (Colon Cancer), TGI: PG=0
  Log10TGI50: >−4.30 log10M
[9]; CNS Cancer, SF-268
  Log10GI50: <−8.30
[9]; SF-268 (CNS Cancer), LC50: PG=−50
  Log10LC50: −4.59 log10M
[9]; SF-268 (CNS Cancer), TGI: PG=0
  Log10TGI50: −5.14 log10M
[10]; CNS Cancer, SF-539
  Log10GI50: −5.19
[10]; SF-539 (CNS Cancer), LC50: PG=−50
  Log10LC50: >−4.30 log10M
[10]; SF-539 (CNS Cancer), TGI: PG=0
  Log10TGI50: −4.66 log10M
[11]; LC50: PG=−50
  Log10LC50: >−4.30 log10M
[11]; TGI: PG=0
  Log10TGI50: −4.38 log10M
[12]; OVCAR-8 (Ovarian Cancer), LC50: PG=−50
  Log10LC50: >−4.30 log10M
[12]; OVCAR-8 (Ovarian Cancer), TGI: PG=0
  Log10TGI50: −4.48 log10M
[12]; Ovarian Cancer, OVCAR-8
  Log10GI50: −5.25
[13]; Ovarian Cancer, SK-OV-3
  Log10GI50: −6.82
[13]; SK-OV-3 (Ovarian Cancer), LC50: PG=−50
  Log10LC50: −4.47 log10M
[13]; SK-OV-3 (Ovarian Cancer), TGI: PG=0
  Log10TGI50: −4.92 log10M
[14]; RXF 393 (Renal Cancer), LC50: PG=−50
  Log10LC50: −4.73 log10M
[14]; RXF 393 (Renal Cancer), TGI: PG=0
  Log10TGI50: −5.99 log10M
[14]; Renal Cancer, RXF 393
  Log10GI50: <−8.30
[15]; Breast Cancer, MCF7
  Log10GI50: <−8.30
[15]; MCF7 (Breast Cancer), LC50: PG=−50
  Log10LC50: >−4.30 log10M
[15]; MCF7 (Breast Cancer), TGI: PG=0
  Log10TGI50: −5.13 log10M
[16]; Breast Cancer, NCI/ADR-RES
  Log10GI50: −5.73
[16]; NCI/ADR-RES (Breast Cancer), LC50: PG=−50
  Log10LC50: −4.63 log10M
[16]; NCI/ADR-RES (Breast Cancer), TGI: PG=0
  Log10TGI50: −5.09 log10M
[17]; Breast Cancer, MDA-MB231/ATCC
  Log10GI50: <−8.30
[17]; MDA-MB231/ATCC (Breast Cancer), LC50: PG=−50
  Log10LC50: −5.02 log10M
[17]; MDA-MB231/ATCC (Breast Cancer), TGI: PG=0
  Log10TGI50: <−8.30 log10M
[18]; BT-549 (Breast Cancer), LC50: PG=−50
  Log10LC50: −4.61 log10M
[18]; BT-549 (Breast Cancer), TGI: PG=0
  Log10TGI50: −5.54 log10M
[18]; Breast Cancer, BT-549
  Log10GI50: −6.67
